Test results as given in article PMC5404542, “In Vitro and In Vivo Antifungal Profile of a Novel and Long-Acting Inhaled Azole, PC945, on Aspergillus fumigatus Infection” (Antimicrobial Agents and Chemotherapy, 2017).
≈ marks a conversion by molar mass, not a printed value. Like-named read-outs stand apart in the source and are kept apart here. Marks after values point to notes of the source that are not given here.

Columns and labels:
A. fumigatus = A. fumigatus sterol analysis by GC-MS; format: cell-based, Aspergillus fumigatus; settings: 2 h
Description: A working suspension of A. fumigatus spores was prepared in filter-sterilized MOPS-RPMI 1640 (RPMI 1640 medium containing 2 mM L-glutamine, 2% glucose, and 0.165 M MOPS, buffered to pH 7 with NaOH) to a final concentration of 8 × 10^6 spores ml^-1. […] Samples for baseline determinations were collected by scraping, pelleted by centrifugation at 2,000 rpm for 5 min, and stored at -80°C. Test compounds or DMSO (50 μl) was added to the remaining dishes, which were subsequently gently rocked by hand to disperse the compounds. […] Samples were collected and processed as described above. […] These samples were prepared in the laboratory at Pulmocide Ltd. and sent to the laboratory at the Centre for Cytochrome P450 Biodiversity, Institute of Life Science, […] University Medical School, for experimentation. Nonsaponifiable lipids were extracted as previously reported ([29]) and were derivatized with 0.1 ml N,O-bis(trimethylsilyl)trifluoroacetamide:trimethylchlorosilane (99:1) and 0.3 ml anhydrous pyridine (2 h at 80°C) prior to analysis by gas chromatography-mass spectrometry ([38]). Sterol composition was calculated using peak areas from the gas chromatograms, and the mass fragmentation patterns compared to known standards were used to confirm sterol identity. The sterol contents of A. fumigatus (basal) and treated A. fumigatus (treated with either DMSO, posaconazole, or PC945) were determined.

[1] = test system: Gibberella zeae (Fusarium graminearum) (ATCC 16106); assay: microbe, parasite or virus in culture; format: cell-based; settings: ATCC16106
[2] = test system: Rhizopus oryzae (ATCC 11145); assay: MIC, CLSI; format: cell-based
[3] = test system: BEAS2B cells infected with A. fumigatus; assay: Persistence of action on bronchial epithelial cells (galactomannan in supernatant); format: cell-based, Aspergillus fumigatus; settings: for IC50: Aspergillus fumigatus, BEAS-2B
Description: The persistence of action of test agents was evaluated on immortalized bronchial epithelial cells (BEAS2B cells). […] Test and reference articles or undiluted DMSO (as vehicle) (0.5 μl/well) was added to the appropriate wells of the washout plate to give a final concentration of 0.5% DMSO. The plate was incubated for exactly 1 h at 37°C and 5% CO2. After the incubation time had elapsed, all wells on the washout plate were aspirated, and growth medium (100 μl/well) was added across the plate. After 24 h of incubation at 37°C, test and reference articles or undiluted DMSO (as vehicle) (0.5 μl/well) was added to the appropriate wells of the nonwashout plate to give a final concentration of 0.5% DMSO. The plate was incubated for exactly 1 h at 37°C and 5% CO2, after which A. fumigatus conidia were added across both plates to a final concentration of 1 × 10^3/well.

[4] = test system: Cladosporium argillaceum (ATCC 38013); assay: MIC, CLSI; format: cell-based; settings: Rhizocladosporium argillaceum, ATCC38013, 1 strain
[5] = test system: Mucor circinelloides (ATCC 8542); assay: MIC, CLSI; format: cell-based; settings: ATCC8542, 1 strain
[6] = test system: 96 clinically isolated A. fumigatus strains; assay: MIC against 96 clinically isolated strains (EUCAST, visual)
Description: Conidia were added across the plate to a final concentration of 1 × 10^5 ml^−1. […] Determination of antifungal activity against 50 A. fumigatus clinical isolates from St. Louis Hospital (Paris, France) was performed with 96-well plates, using the modified EUCAST method in the presence of 0.5% BSA as described above. Antifungal susceptibility testing of 46 A. fumigatus isolates (obtained from the NW England Mycology Reference Centre) was performed by Evotec UK Ltd. (Manchester, United Kingdom) according to EUCAST guidelines.

AfCYP51B = biological target: T1, AfCYP51B (Aspergillus fumigatus, UniProt E9QY26); assay: CYP51 reconstitution assay (sterol 14α-demethylase activity); format: biochemical; settings: for IC50: 0.5 μM AfCYP51B from membrane fraction of E. coli expression clones; for Ki: suggested from tight-binding inhibition, read-out: Ki.app, CYP51B
T1 construct: made in house; host or cells: Escherichia coli (membrane fraction)
T1 sequence (E9QY26 1-524): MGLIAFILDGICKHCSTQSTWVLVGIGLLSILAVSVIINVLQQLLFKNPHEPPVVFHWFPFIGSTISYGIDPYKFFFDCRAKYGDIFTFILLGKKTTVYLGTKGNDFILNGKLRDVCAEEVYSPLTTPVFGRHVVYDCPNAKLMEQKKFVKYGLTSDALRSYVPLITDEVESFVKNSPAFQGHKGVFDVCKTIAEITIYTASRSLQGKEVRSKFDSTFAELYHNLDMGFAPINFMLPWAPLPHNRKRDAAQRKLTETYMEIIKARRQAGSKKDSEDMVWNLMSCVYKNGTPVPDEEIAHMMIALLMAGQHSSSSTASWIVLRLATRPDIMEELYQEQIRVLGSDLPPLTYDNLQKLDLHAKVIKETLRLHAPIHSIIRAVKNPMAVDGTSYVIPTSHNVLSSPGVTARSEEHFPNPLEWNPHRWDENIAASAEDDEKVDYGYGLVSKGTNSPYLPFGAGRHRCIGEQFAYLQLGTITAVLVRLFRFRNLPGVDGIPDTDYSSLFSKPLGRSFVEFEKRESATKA
Description: A CYP51 reconstitution assay system was used to determine 50% inhibitory concentrations (IC50s) ([37]). Test agent was added to a mixture of 0.5 μM CYP51, 1 μM A. fumigatus cytochrome P450 reductase isoenzyme 1 (AfCPR1), 50 μM eburicol, 4% (wt/vol) 2-hydroxypropyl-β-cyclodextrin, 0.4 mg ml^−1 isocitrate dehydrogenase, 25 mM trisodium isocitrate, 50 mM NaCl, 5 mM MgCl2, and 40 mM 3-(N-morpholino) propanesulfonic acid (MOPS) (pH ∼7.2). The mixtures were then incubated at 37°C for 10 min prior to initiation with 4 mM β-NADPHNa4 followed by shaking for 20 min at 37°C. Sterol metabolites were recovered by extraction with ethyl acetate followed by derivatization with 0.1 ml N,O-bis(trimethylsilyl)trifluoroacetamide:trimethylchlorosilane (99:1) and 0.3 ml anhydrous pyridine prior to analysis by gas chromatography-mass spectrometry.

[7] = test system: Aspergillus terreus (AT49, AT7130); assay: MIC, EUCAST; format: cell-based; settings: 2 strains, EUCAST, mean isolate MIC, read-out: MIC
[8] = Rhizopus arrhizus, ATCC11145, 1 strain, read-out: MIC
[9] = 1 h contact before infection, GM readout after 24 h, read-out: BEAS2B cells IC50, No washout
[10] = 1 h contact, 24-h washout prior to infection, GM readout, read-out: BEAS2B cells IC50, Washout
[11] = 96 clinical isolates, determined visually
[12] = Aspergillus fumigatus, read-out: MIC, Geometric mean
[13] = Aspergillus fumigatus, read-out: MIC, Mode

SMILES	Sterol content in cells, Eburicol (A. fumigatus; 0.0001 μg/ml) [%]	Sterol content in cells, Ergost-5,7-dienol (A. fumigatus; 0.0001 μg/ml) [%]	Sterol content in cells, Ergosterol (A. fumigatus; 0.0001 μg/ml) [%]	Sterol content in cells, Lanosterol (A. fumigatus; 0.0001 μg/ml) [%]	Sterol content in cells, Eburicol (A. fumigatus; 0.001 μg/ml) [%]	Sterol content in cells, Ergost-5,7-dienol (A. fumigatus; 0.001 μg/ml) [%]	Sterol content in cells, Ergosterol (A. fumigatus; 0.001 μg/ml) [%]	Sterol content in cells, Lanosterol (A. fumigatus; 0.001 μg/ml) [%]	Sterol content in cells, Eburicol (A. fumigatus; 0.01 μg/ml) [%]	Sterol content in cells, Ergost-5,7-dienol (A. fumigatus; 0.01 μg/ml) [%]	Sterol content in cells, Ergosterol (A. fumigatus; 0.01 μg/ml) [%]	Sterol content in cells, Lanosterol (A. fumigatus; 0.01 μg/ml) [%]	Sterol content in cells, Eburicol (A. fumigatus; 0.1 μg/ml) [%]	Sterol content in cells, Ergost-5,7-dienol (A. fumigatus; 0.1 μg/ml) [%]	Sterol content in cells, Ergosterol (A. fumigatus; 0.1 μg/ml) [%]	Sterol content in cells, Lanosterol (A. fumigatus; 0.1 μg/ml) [%]	Sterol content in cells, Eburicol (A. fumigatus; 1 μg/ml) [%]	Sterol content in cells, Ergost-5,7-dienol (A. fumigatus; 1 μg/ml) [%]	Sterol content in cells, Ergosterol (A. fumigatus; 1 μg/ml) [%]	Sterol content in cells, Lanosterol (A. fumigatus; 1 μg/ml) [%]	further results
Cc1cc(N2CCN(c3ccc(C(=O)Nc4ccc(F)cc4)cc3)CC2)ccc1OC[C@@H]1CO[C@@](Cn2cncn2)(c2ccc(F)cc2F)C1 [PC945, 4-[4-(4-{[(3R,5R)-5-(2,4-difluorophenyl)-5-(1H-1,2,4-triazol-1-ylmethyl)oxolan-3-yl]methoxy}-3-methylphenyl)piperazin-1-yl]-N-(4-fluorophenyl)benzamide]	0	4.1	95.9	0	2.7	2.5	94.7	0	6.5	3.3	86.7	3.6	13.2	0	80.6	6.2	19.3	0	71.3	9.4	MIC [1]: > 8 µg/mL; MIC ([2]; 1 strain): 2 µg/mL (≈ 2.93 µM); MIC [2, 8]: 2 µg/mL (≈ 2.93 µM); IC50 [3, 9]: 0.0037 µg/mL (≈ 0.00542 µM); IC50 [3, 10]: 0.043 µg/mL (≈ 0.063 µM); MIC [4]: > 8 µg/mL; MIC [5]: > 8 µg/mL; concentration up to which growth was not completely inhibited ([6]; 5 of the 13 posaconazole-resistant isolates, NW Mycology Centre): > 8 µg/mL; fold more potent than voriconazole, based on the geometric mean ([6]; 96 clinical isolates): 2.5 fold; MIC90 [6, 11]: 1 µg/mL (≈ 1.46 µM); MIC, Geometric mean [6, 11]: 0.17* μg/ml; MIC50 ([6]; Aspergillus fumigatus): 0.125 µg/mL (≈ 0.183 µM); MIC90 ([6]; Aspergillus fumigatus): 1 µg/mL (≈ 1.46 µM); MIC [6, 12]: 0.17 µg/mL (≈ 0.249 µM); MIC [6, 13]: 0.125 µg/mL (≈ 0.183 µM); IC50 (AfCYP51B): 220 nM; Ki (AfCYP51B): < 1 nM; MIC [7]: 0.078 µg/mL (≈ 0.114 µM)
CC[C@@H]([C@H](C)O)n1ncn(-c2ccc(N3CCN(c4ccc(OC[C@@H]5CO[C@@](Cn6cncn6)(c6ccc(F)cc6F)C5)cc4)CC3)cc2)c1=O [Posaconazole, posaconazole]	2.2	3.3	94.5	0	5.9	3.9	87.2	3.0	18.3	0	74.7	7.0	23.4	0	67.8	8.8	23.8	0	67.4	8.8	MIC [1]: > 8 µg/mL; MIC ([2]; 1 strain): >8 µg/mL; MIC [2, 8]: > 8 µg/mL; IC50 [3, 9]: 0.0031 µg/mL (≈ 0.00442 µM); IC50 [3, 10]: 0.046 µg/mL (≈ 0.0656 µM); BEAS2B cells Fold change ([3]; washout versus no washout): 14.7 fold; MIC [4]: 0.25 µg/mL (≈ 0.357 µM); MIC [5]: > 8 µg/mL; MIC, Range [6, 11]: 0.016 to 2 µg/mL; MIC50 ([6]; Aspergillus fumigatus): 0.063 µg/mL (≈ 0.0899 µM); MIC90 ([6]; Aspergillus fumigatus): 0.5 µg/mL (≈ 0.713 µM); MIC ([6]; Aspergillus fumigatus, ATCC204305, read-out: MIC, quality control strain): 0.25 µg/mL (≈ 0.357 µM); MIC [6, 12]: 0.1 µg/mL (≈ 0.143 µM); MIC [6, 13]: 0.032 µg/mL (≈ 0.0457 µM); IC50 (AfCYP51B): 170 nM; Ki (AfCYP51B): < 1 nM; MIC [7]: 0.093 µg/mL (≈ 0.133 µM)
